{"source": "patent US20260137701A1", "about": "“CHOLESTENOIC ACID (CA) AND A SULFATED DERIVATIVE THEREOF, 3[BETA]-SULFATE-5-CHOLESTENOIC ACID (CA3S), AS ENDOGENOUS EPIGENETIC REGULATORS” (priority 2022, published 2026)", "key": {"[1]": {"tested_on": "AMPK", "test": "Western blot analysis of AMPK protein", "type": "cell-based, human", "details": "HepG-2, high glucose media, 20 μM CA, 24 hours", "protocol": "Specific proteins were analyzed by western blot. The proteins were extracted using M-PER™ Mammalian Protein Extraction Reagents (Fisher Scientific). For each sample, 20 μg of proteins were separated on 8%-12% SDS polyacrylamide gel electrophoresis (SDS-PAGE) gels. Electrophoresis was performed at 100V for 15 min and 200V for another 25 min in a Bio-Rad mini-gel system. After electrophoresis, samples were transferred onto a polyvinylidene difluoride (PVDF) membrane at 30V for 50 min. The specific proteins on the membrane were detected by incubation with anti-AMPKα1/2 (Santa Cruz Biotechnologies) primary antibody at 4° C. overnight, followed by further incubation with an appropriate horseradish peroxidase (HRP)-conjugated secondary antibody (Bio-Rad) at room temperature for 1 hr. Each positive band was quantified by Advanced Image Data Analyzer (Aida, Straubenhardt, Germany)."}, "[2]": {"tested_on": "normal primary human hepatocytes (PHH)"}}}
{"smiles": "CC(CCC[C@@H](C)[C@H]1CC[C@H]2[C@@H]3CC=C4C[C@@H](O)CC[C@]4(C)[C@H]3CC[C@]12C)C(=O)O", "note": "(stereo partly drawn) [CA, 3β-hydroxy-5-cholestenoic acid]", "values": [{"measurement": "protein levels of AMPK", "setting": "[1]", "result": "significantly increased"}, {"measurement": "death of normal primary human hepatocytes", "setting": "[2]", "result": "not the death"}]}
